We go through one molecule from BindingDB's records for doi:10.1016/j.bmc.2011.05.064 (Glaxosmithkline, 2011).

For the assay, the target named is Beta-1 adrenergic receptor (Homo sapiens, UniProt P08588). In words: Agonist activity at human adrenergic beta1 receptor expressed in CHO cells assessed as cAMP accumulation.

The structures appear in SMILES notation.

Chain of Beta-1 adrenergic receptor (P08588 whole entry): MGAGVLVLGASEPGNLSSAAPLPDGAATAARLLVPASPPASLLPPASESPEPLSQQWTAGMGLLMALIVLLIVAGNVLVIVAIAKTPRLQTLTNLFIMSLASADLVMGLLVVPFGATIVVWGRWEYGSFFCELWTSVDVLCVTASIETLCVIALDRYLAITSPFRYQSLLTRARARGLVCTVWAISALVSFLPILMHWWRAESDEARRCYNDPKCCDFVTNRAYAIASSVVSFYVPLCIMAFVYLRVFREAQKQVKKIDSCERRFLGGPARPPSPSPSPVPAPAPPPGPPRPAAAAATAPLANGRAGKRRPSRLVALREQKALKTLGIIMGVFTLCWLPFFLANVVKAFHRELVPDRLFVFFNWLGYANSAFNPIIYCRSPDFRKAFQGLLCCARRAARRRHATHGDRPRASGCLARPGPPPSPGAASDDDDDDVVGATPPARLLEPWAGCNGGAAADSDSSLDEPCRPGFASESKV

As usually defined, the EC50 is the midpoint of the concentration-response curve. Turning to `O=c1[nH]cc(O)n1-c1ccc(CCCCOCCCCCCNC[C@H](O)c2ccc(O)c(CO)c2)cc1`, the EC50 amounted to 79 nM.
